Assay results published in EP4786487A1, “PEPTIDE” (Peptidream Inc, priority 2023, dated 2025).
Starred links: 1 amine or outer side, 2 acyl side, 3 side chain; linkers in the order of their positions; H or OH if unused. Positions of bridges follow the written chain, without caps; N, C: chain ends. Non-standard residues stand in square brackets, D forms with d. Residues, ends and D or L forms follow the SMILES beside them. Groups on a side chain read outwards from the residue. *: point of attachment. Phe(4-COOH) = N[C@@H](Cc1ccc(C(=O)O)cc1)C(=O)O; Piperazinyl(4-CH2COOH) = O=C(O)CN1CCN(*)CC1; Gly(N(CH2)3COOH) = O=C(O)CCCNCC(=O)O; X1 = CCCCCCC[C@H](N[*:1])C(=O)[*:2]; NMeCha = CN[C@@H](CC1CCCCC1)C(=O)O; NMeF = CN[C@@H](Cc1ccccc1)C(=O)O; 4Pal = N[C@@H](Cc1ccncc1)C(=O)O; Cha = N[C@@H](CC1CCCCC1)C(=O)O; hSer = N[C@@H](CCO)C(=O)O; NMeA = CN[C@@H](C)C(=O)O; CO = O=C([*:1])[*:2]; Sar = CNCC(=O)O; Propyl = CCC*

Key:
Assay type in all cases: cell-based
Myostatin [1] = assay: Reporter gene assay for myostatin signaling in HepG2 cell line, Evaluation Procedure (1), myostatin inhibition; conditions: Method A; GDF-11 IC50 versus Myostatin IC50
How it was run: (§1)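 HepG2 cells transfected with pGL3(CAGA)12-luciferase reporter, serum-starved in 0.1% BSA medium, then stimulated with myostatin or GDF-11 plus 4-fold peptide dilutions (0.006–100 nmol/L for myostatin, 0.12–2000 nmol/L for GDF-11) for 20–24 h at 37 °C. Luminescence read with One-Glo; IC50 calculated.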

Myostatin [2] = target: T1, Myostatin (Homo sapiens, UniProt O14793); assay: as above; conditions: Method A: Myostatin 10 ng/mL; read-out: IC50 (Luciferase) Myostatin HepG2
T1 construct: active myostatin (also called mature myostatin) is a homodimer consisting of two C-terminal growth factor domains; purchased R&D systems 788-G8/CF
T1 sequence (O14793 267-375): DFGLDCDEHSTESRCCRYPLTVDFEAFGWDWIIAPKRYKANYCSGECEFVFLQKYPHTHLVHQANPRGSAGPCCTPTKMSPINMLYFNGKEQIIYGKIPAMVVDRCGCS
How it was run: as §1

GDF-11 = target: T2, GDF-11 (Homo sapiens, UniProt O95390); assay: Reporter gene assay for myostatin signaling in HepG2 cell line, Evaluation Procedure (1), GDF-11 inhibition; conditions: Method A: GDF-11 10 ng/mL; read-out: IC50 (Luciferase) GDF-11 HepG2
T2 construct: purchased R&D systems 1958-GD-G8/CF
T2 sequence (O95390 299-407): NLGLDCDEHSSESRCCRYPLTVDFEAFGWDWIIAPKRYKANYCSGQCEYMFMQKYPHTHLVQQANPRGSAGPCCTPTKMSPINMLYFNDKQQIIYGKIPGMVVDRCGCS
How it was run: as §1

| IC50 (Myostatin [2]) [nM] | IC50 (GDF-11) [nM] | SMILES | Selectivity (Myostatin [1]) |
| --- | --- | --- | --- |
| 57.1 | 8370 | CCCOCC[C@@H]1NC(=O)[C@H](Cc2ccccc2)N(C)C(=O)[C@H](CCCNC(=N)N)NC(=O)[C@H](Cc2ccc(C(=O)O)cc2)NC(=O)[C@H](Cc2ccncc2)NC(=O)CN(C)C(=O)[C@H]([C@@H](C)CC)NC(=O)[C@H](Cc2ccccc2)N(C)C(=O)[C@H](Cc2ccc(O)cc2)NC(=O)[C@H](Cc2c[nH]c3ccccc23)NC(=O)[C@H](C)NC(=O)CN(CCCC(=O)O)C(=O)CSC[C@H](C(=O)O)NC(=O)[C@H](Cc2ccccc2)N(C)C(=O)[C@H](C)N(C)C1=O [Myostatin_99_v230] ({CH2CO}-[Gly(N(CH2)3COOH)]AWY[NMeF]I[Sar][4Pal][Phe(4-COOH)]R[NMeF][hSer](Propyl)[NMeA][NMeF][dC]-OH; thioether N-15) | 147 |
| 17.7 | 13600 | CCCCCCC[C@@H]1NC(=O)[C@H](CC2CCCCC2)NC(=O)[C@H](CCCNC(=N)N)NC(=O)[C@H](Cc2ccc(C(=O)O)cc2)NC(=O)[C@H](CCCCNC(=O)N2CCN(CC(=O)O)CC2)NC(=O)[C@H]2CCCN2C(=O)[C@H]([C@@H](C)CC)NC(=O)[C@H](CC2CCCCC2)N(C)C(=O)[C@H](Cc2ccc(O)cc2)NC(=O)[C@H](Cc2c[nH]c3ccccc23)NC(=O)[C@@H](CCC(=O)O)NC(=O)[C@H](C)NC(=O)CSC[C@H](C(=O)N2CCN(CC(=O)O)CC2)NC(=O)[C@H](Cc2ccccc2)N(C)C(=O)[C@H](C)N(C)C1=O [Myostatin_99_v244] ({CH2CO}-A[dE]WY[NMeCha]I[dP]K([CO-Piperazinyl(4-CH2COOH)])[Phe(4-COOH)]R[Cha][X1][NMeA][NMeF][dC]-{Piperazinyl(4-CH2COOH)}; thioether N-15) | 771 |
| 21.5 | 3530 | CCCCCCC[C@@H]1NC(=O)[C@H](CC2CCCCC2)N(C)C(=O)[C@H](CCCNC(=N)N)NC(=O)[C@H](Cc2ccc(C(=O)O)cc2)NC(=O)[C@H](CCCCNC(=O)N2CCN(CC(=O)O)CC2)NC(=O)[C@H]2CCCN2C(=O)[C@H]([C@@H](C)CC)NC(=O)[C@H](CC2CCCCC2)N(C)C(=O)[C@H](Cc2ccc(O)cc2)NC(=O)[C@H](Cc2c[nH]c3ccccc23)NC(=O)[C@@H](CCC(=O)O)NC(=O)[C@H](C)NC(=O)CSC[C@H](C(=O)N2CCN(CC(=O)O)CC2)NC(=O)[C@H](Cc2ccccc2)N(C)C(=O)[C@H](C)N(C)C1=O [Myostatin_99_v248] ({CH2CO}-A[dE]WY[NMeCha]I[dP]K([CO-Piperazinyl(4-CH2COOH)])[Phe(4-COOH)]R[NMeCha][X1][NMeA][NMeF][dC]-{Piperazinyl(4-CH2COOH)}; thioether N-15) | 164 |
| 0.5 | 119 | CCCCCCC[C@@H]1NC(=O)[C@H](CC2CCCCC2)NC(=O)[C@H](CCCNC(=N)N)NC(=O)[C@H](Cc2ccc(C(=O)O)cc2)NC(=O)[C@H](CCCCNC(=O)N2CCN(CC(=O)O)CC2)NC(=O)CN(C)C(=O)[C@H]([C@@H](C)CC)NC(=O)[C@H](CC2CCCCC2)N(C)C(=O)[C@H](Cc2ccc(O)cc2)NC(=O)[C@H](Cc2c[nH]c3ccccc23)NC(=O)[C@@H](CCC(=O)O)NC(=O)[C@H](C)NC(=O)CSC[C@H](C(=O)N2CCN(CC(=O)O)CC2)NC(=O)[C@H](Cc2ccccc2)N(C)C(=O)[C@H](C)N(C)C1=O [Myostatin_99_v249] ({CH2CO}-A[dE]WY[NMeCha]I[Sar]K([CO-Piperazinyl(4-CH2COOH)])[Phe(4-COOH)]R[Cha][X1][NMeA][NMeF][dC]-{Piperazinyl(4-CH2COOH)}; thioether N-15) | 237 |
